Reference: patent US8029984B2, “Materials and methods for colorectal cancer screening, diagnosis and therapy” (Licentia, Ltd., priority 2003, dated 2011)

Tests used:
Assay type in all cases: cell-based, human
SW480A cells = assay: Treatment of SW480A cells with inhibitor of DNA methyltransferases
Description: (§1) DNA methylation is frequently abnormal in colorectal cancer, and it was reported recently that Prox-1 expression is suppressed in human hematological cell lines due to hypermethylation of CpG islands in intron 1 of Prox-1 (Nagai, H. et al., Genes Chromosomes Cancer 38, 13-21 (2003)).

SW480R cells [1] = assay: Treatment of SW480R cells with inhibitor of DNA methyltransferases
Description: as §1

SW480R cells [2] = assay: BrdU incorporation in siRNA transfected SW480R cells
Protocol: Transfection of siRNAs was carried out using lipofectamine 2000 (Invitrogen) according to manufacturer's instructions using 0.5% (v/v) lipofectamine 2000 reagent for SW480R and 0.4% (v/v) lipofectamine 2000 for adherent SW480 cells and either 2 nM or 100 nM (f.c.) of siRNA. Transfections were carried out in antibiotic-free media for 4-6 hours before changing cells back to normal culture media. For long-term experiments siRNA transfections were repeated after 48-72 h from previous transfection (at protein level the silencing effect was seen to remain efficient for at least 96 h). Normally approximately 90-95% transfection efficiency was achieved. Opti-MEM (Invitrogen) medium was used in preparation of transfection mixtures.
Experiments were conducted to investigate whether Prox-1 plays role in the generation and maintenance of the highly transformed phenotype. Prox-1 mRNA and protein in the SW480R cells was suppressed using Prox-1 targeting siRNA. […] Eventually the Prox-1 siRNA cells started to spread on the plate and a number of increased actin stress fibers could be visualized by phalloidine staining.

SW480R cells [3] = assay: Soft agar assay (anchorage-independent growth); conditions: transfected repeatedly over 8 days, two weeks of growth
Protocol: FIG. 3 depicts the efficacy of Prox-1 suppression for inhibiting SW480R cell growth in soft agar. SW480R cells were transfected with GFP siPRNA, Prox-1 siRNA A16 or Prox-1 siRNA A25 or left untreated, and seeded in soft agar in triplicate. The number of colonies was scored after two weeks of growth.
For soft agar assay, 2×10^3 and 2×10^4 cells were seeded in triplicate in 1 ml of 0.33% (w/v) agar (Difco) containing D-MEM, 10% fetal bovine serum, 1 mM glutamine and antibiotics in 6-well plates containing 1 ml of 0.5% bottom agar layer. Cells were fed twice a week, and number of colonies per plate was scored after two weeks in culture.
Since anchorage-independent growth is one of the hallmarks of malignant transformation, experiments were conducted to assess the effects of Prox-1 suppression on the growth of SW480R cells in soft agar. SW480R cells were transfected with GFP siPRNA, Prox-1 siRNA A16 or Prox-1 siRNA A25 repeatedly over an 8-day period, or left untreated, and seeded in soft agar in triplicate. The number of colonies was scored after two weeks of growth.

Compound | Prox-1 mRNA (SW480A cells) | expression of TIMP3 (SW480A cells) | Prox-1 expression (SW480R cells [1]) | BrdU positive cells (SW480R cells [2]) | number of colonies formed in soft agar (SW480R cells [3])
Nc1ncn([C@H]2C[C@H](O)[C@@H](CO)O2)c(=O)n1 [5-aza-2′-deoxycytidine] | did not result in the increase | increase | almost completely suppressed | – | –
GFP siRNA: control siRNA, sense GACGUAAACGGCCACAAGUUU (SEQ ID NO: 8), antisense ACUUGUGGCCGUUUACGUCUU (SEQ ID NO: 9) (listed as RNA, chemistry not given here; listed as Homo sapiens) | – | – | – | 34±4% | –
Prox-1 siRNA A16: siRNA duplex, sense 5′-CUGCAAGCUGGAUAGUGAAGU-3′ (SEQ ID NO: 4), antisense 5′-UUCACUAUCCAGCUUGCAGAU-3′ (SEQ ID NO: 5) (RNA, backbone not given here; listed as Homo sapiens) | – | – | – | 22±0.5% | significantly decreased
Prox-1 siRNA A25: siRNA duplex, sense 5′-CUAUGAGCCAGUUUGAUAUUU-3′ (SEQ ID NO: 6), antisense 5′-AUAUCAAACUGGCUCAUAGUU-3′ (SEQ ID NO: 7) (RNA, backbone not given here; listed as Homo sapiens) | – | – | – | 18±1% | significantly decreased
